According to the supplement of paper PMC4862054:

Columns and labels:
Experiment in all cases: normalised response (% of control), CellTiter-Glo; higher = more viable cells (100 = DMSO, 0 = benzethonium chloride kill control)
Conditions in all cases: incubation time: 72 h
BT-474 = system: BT-474
Outline: (§1)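 Every value is a normalised signal taken at one concentration of a dilution series. Compound was placed in 384-well plates at 5 concentrations in 10-fold steps over a compound-specific 10,000-fold range, and 20 µl of breast cancer cell suspension was seeded onto it. After 72 h, CellTox Green fluorescence (485/520 nm) was measured first and CellTiter-Glo luminescence second, following 10 min at room temperature. Each plate was scaled to 0.1 % DMSO (100) and a positive kill control (0).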

BT-549 = system: BT-549
Outline: as §1

CAL-120 = system: CAL-120
Outline: as §1

CAL-148 = system: CAL-148
Outline: as §1

CAL-51 = system: CAL-51
Outline: as §1

CAL-85-1 = system: CAL-85-1
Outline: as §1

DU-4475 = system: DU-4475
Outline: as §1

HCC1143 = system: HCC1143
Outline: as §1

HCC1599 = system: HCC1599
Outline: as §1

HCC1937 = system: HCC1937
Outline: as §1

HDQ-P1 = system: HDQ-P1
Outline: as §1

Hs578T = system: Hs578T
Outline: as §1

MCF-10A = system: MCF-10A
Outline: as §1

MDA-MB-231 = system: MDA-MB-231
Outline: as §1

MDA-MB-436 = system: MDA-MB-436
Outline: as §1

MDA-MB-453 = system: MDA-MB-453
Outline: as §1

MDA-MB-468 = system: MDA-MB-468
Outline: as §1

MFM-223 = system: MFM-223
Outline: as §1

SK-BR-3 = system: SK-BR-3
Outline: as §1

Structure (SMILES) | normalised response (BT-474) [%] | normalised response (BT-549) [%] | normalised response (CAL-120) [%] | normalised response (CAL-148) [%] | normalised response (CAL-51) [%] | normalised response (CAL-85-1) [%] | normalised response (DU-4475) [%] | normalised response (HCC1143) [%] | normalised response (HCC1599) [%] | normalised response (HCC1937) [%] | normalised response (HDQ-P1) [%] | normalised response (Hs578T) [%] | normalised response (MCF-10A) [%] | normalised response (MDA-MB-231) [%] | normalised response (MDA-MB-436) [%] | normalised response (MDA-MB-453) [%] | normalised response (MDA-MB-468) [%] | normalised response (MFM-223) [%] | normalised response (SK-BR-3) [%]
CNC(=O)c1ccc(N2C(=S)N(c3ccc(C#N)c(C(F)(F)F)c3)C(=O)C23CCC3)cc1F [RD162] (1 nM) | 97 | 93.8 | 98 | 104 | 108 | 96.2 | 102 | 93.7 | 107 | 93.8 | 95.9 | 102 | 102 | 106 | 101 | 104 | 106 | 99.9 | 107
CNC(=O)c1ccc(N2C(=S)N(c3ccc(C#N)c(C(F)(F)F)c3)C(=O)C23CCC3)cc1F [RD162] (10 nM) | 103 | 93.8 | 95.5 | 107 | 102 | 101 | 102 | 105 | 99.3 | 97 | 96.3 | 95.3 | 105 | 98.2 | 93.7 | 104 | 105 | 102 | 94.4
CNC(=O)c1cc(Oc2ccc(NC(=O)Nc3ccc(Cl)c(C(F)(F)F)c3)c(F)c2)ccn1 [Regorafenib] (10 nM) | 111 | 106 | 94 | 109 | 108 | 100 | 105 | 100 | 108 | 96 | 102 | 101 | 113 | 95.2 | 104 | 117 | 97.9 | 101 | 110
CO[C@H]1C[C@@H]2CC[C@@H](C)[C@@](O)(O2)C(=O)C(=O)N2CCCC[C@H]2C(=O)O[C@H]([C@H](C)C[C@@H]2CC[C@@H](OP(C)(C)=O)[C@H](OC)C2)CC(=O)[C@H](C)/C=C(\C)[C@@H](O)[C@@H](OC)C(=O)[C@H](C)C[C@H](C)/C=C/C=C/C=C/1C [Ridaforolimus] (0.01 nM) | 107 | 101 | 103 | 105 | 109 | 99.8 | 103 | 102 | 113 | 99.6 | 109 | 96.8 | 104 | 103 | 103 | 109 | 102 | 105 | 111
c1ccc2c(CCNc3ccc(Nc4ccncc4)cc3)c[nH]c2c1 [Serdemetan] (10 nM) | 87.6 | 105 | 91.5 | 92 | 105 | 106 | 102 | 93.4 | 115 | 99.4 | 98.7 | 96.5 | 100 | 97.3 | 97.9 | 105 | 95.2 | 98.3 | 94.3
S=P(N1CC1)(N1CC1)N1CC1 [Thio-TEPA] (5 nM) | 93.2 | 94.9 | 95.4 | 90.4 | 64.7 | 99.2 | 98.6 | 96.2 | 104 | 93.8 | 93.4 | 106 | 101 | 102 | 78.2 | 108 | 91.2 | 102 | 105
S=P(N1CC1)(N1CC1)N1CC1 [Thio-TEPA] (50 nM) | 97 | 100 | 93 | 94.2 | 71.5 | 98.7 | 103 | 95.7 | 101 | 101 | 94.7 | 99.1 | 103 | 96.6 | 98.5 | 98 | 95.3 | 106 | 91.5
CN(C)CCOc1ccc(/C(=C(/CCCl)c2ccccc2)c2ccccc2)cc1 [Toremifene] (10 nM) | 101 | 99 | 105 | 109 | 130 | 95.1 | 108 | 98.2 | 91.3 | 98.6 | 99.2 | 103 | 105 | 96.8 | 97.1 | 120 | 103 | 106 | 117
CC(C)C[C@@H](C(=O)N[C@H](C(=O)OC1CCCC1)c1ccccc1)[C@H](O)C(=O)NO [Tosedostat] (10 nM) | 95.3 | 88.2 | 92.6 | 111 | 125 | 92.2 | 99.5 | 97.2 | 114 | 87.9 | 99.8 | 94.4 | 102 | 94.4 | 96.1 | 93.9 | 78.5 | 104 | 113
COc1cc2c(NC3CCN(C(C)C)CC3)nc(N3CCC(F)(F)CC3)nc2cc1OCCCN1CCCC1 [UNC0642] (1 nM) | 92.3 | 97.9 | 94.2 | 87.2 | 103 | 93.2 | 97.5 | 95 | 88.9 | 94.5 | 92.7 | 99.3 | 102 | 96 | 89.2 | 105 | 95.9 | 91.2 | 93.1
